Assay results as given in patent publication US11091478B2 (Fochon Pharmaceuticals, Ltd., priority 2017, dated 2021).

Key:
RS4;11 cells = assay: Cell proliferation assay (MTS), RS4;11 cells, 72 h; format: cell-based; details: Homo sapiens, RS4-11, 72 h
In short: (§1)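 Proliferation was scored by MTS (2 h, then SDS stop, A490 with 650 nm reference) and IC50 derived. Compound ran at nine final concentrations from 1.5 to 10000 nM. DOHH2 were incubated 120 h and RS4;11 72 h, both plated at 5000 cells/well in RPMI-1640 plus 10% FBS.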

DOHH2 cells = assay: Cell proliferation assay (MTS), DOHH2 cells, 120 h; format: cell-based; details: Homo sapiens, DOHH-2, 120 h
In short: as §1

SMILES	IC50 (RS4;11 cells) [nM]	IC50 (DOHH2 cells) [nM]
CO[C@H]1CC[C@H](OC[C@@H]2COc3cc(S(=O)(=O)NC(=O)c4ccc(N5CCN(CC6=C(c7ccc(Cl)cc7)CC(C)(C)CC6)CC5)cc4Oc4cnc5[nH]ccc5c4)cc([N+](=O)[O-])c3N2)CC1 [Example 2-251, 2-((1H-pyrrolo[2,3-b]pyridin-5-yl)oxy)-4-(4-((4′-chloro-5,5-dimethyl-3,4,5,6-tetrahydro-[1,1′-biphenyl]-2-yl)methyl)piperazin-1-yl)-N-(((R)-3-((((1r,4R)-4-methoxycyclohex-yl)oxy)methyl)-5-nitro-3,4-dihydro-2H-benzo[b][1,4]oxazin-7-yl)sulfonyl)benzamide]	1	44
CO[C@H]1CC[C@H](OC[C@@H]2COc3cc(S(=O)(=O)NC(=O)c4ccc(N5CCN(CC6=C(c7ccc(Cl)cc7)CCC(C)(C)C6)CC5)cc4Oc4cnc5[nH]ccc5c4)cc([N+](=O)[O-])c3N2)CC1 [Example 2-252, 2-((1H-pyrrolo[2,3-b]pyridin-5-yl)oxy)-4-(4-((4′-chloro-4,4-dimethyl-3,4,5,6-tetrahydro-[1,1′-biphenyl]-2-yl)methyl)piperazin-1-yl)-N-(((R)-3-((((1r,4R)-4-methoxycyclo-hexyl)oxy)methyl)-5-nitro-3,4-dihydro-2H-benzo[b][1,4]oxazin-7-yl)sulfonyl)benzamide]	29	83
CN1CCN(C[C@@H]2CSc3cc(S(=O)(=O)NC(=O)c4ccc(N5CCN(CC6=C(c7ccc(Cl)cc7)CC(C)(C)CC6)CC5)cc4Oc4cnc5[nH]ccc5c4)cc([N+](=O)[O-])c3N2)CC1 [Example 3-1, (R)-2-((1H-pyrrolo[2,3-b]pyridin-5-yl)oxy)-4-(4-((4′-chloro-5,5-dimethyl-3,4,5,6-tetrahydro-[1,1′-biphenyl]-2-yl)methyl)piperazin-1-yl)-N-((3-((4-methylpiperazin-1-yl)methyl)-5-nitro-3,4-dihydro-2H-benzo[b][1,4]thiazin-7-yl)sulfonyl)benzamide]	1	3
CC1(C)CCC(CN2CCN(c3ccc(C(=O)NS(=O)(=O)c4cc5c(c([N+](=O)[O-])c4)N[C@H](CCN4CCOCC4)CS5)c(Oc4cnc5[nH]ccc5c4)c3)CC2)=C(c2ccc(Cl)cc2)C1 [Example 3-2, (R)-2-((1H-pyrrolo[2,3-b]pyridin-5-yl)oxy)-4-(4-((4′-chloro-5,5-dimethyl-3,4,5,6-tetrahydro-[1,1′-biphenyl]-2-yl)methyl)piperazin-1-yl)-N-((3-(2-morpholinoethyl)-5-nitro-3,4-dihydro-2H-benzo[b][1,4]thiazin-7-yl)sulfonyl)benzamide]	3	13
CC1(C)CCC(CN2CCN(c3ccc(C(=O)NS(=O)(=O)c4cc5c(c([N+](=O)[O-])c4)N[C@H](CN4CCOCC4)CS5)c(Oc4cnc5[nH]ccc5c4)c3)CC2)=C(c2ccc(Cl)cc2)C1 [Example 3-3, (R)-2-((1H-pyrrolo[2,3-b]pyridin-5-yl)oxy)-4-(4-((4′-chloro-5,5-dimethyl-3,4,5,6-tetra-hydro-[1,1′-biphenyl]-2-yl)methyl)piperazin-1-yl)-N-((3-(morpholinomethyl)-5-nitro-3,4-dihydro-2H-benzo[b][1,4]thiazin-7-yl)sulfonyl)benzamide]	35	58
CN(C)C[C@@H]1CSc2cc(S(=O)(=O)NC(=O)c3ccc(N4CCN(CC5=C(c6ccc(Cl)cc6)CC(C)(C)CC5)CC4)cc3Oc3cnc4[nH]ccc4c3)cc([N+](=O)[O-])c2N1 [Example 3-4, (R)-2-((1H-pyrrolo[2,3-b]pyridin-5-yl)oxy)-4-(4-((4′-chloro-5,5-dimethyl-3,4,5,6-tetra-hydro-[1,1′-biphenyl]-2-yl)methyl)piperazin-1-yl)-N-((3-((dimethylamino)methyl)-5-nitro-3,4-dihydro-2H-benzo[b][1,4]thiazin-7-yl)sulfonyl)benzamide]	12	41
CC1(C)CCC(CN2CCN(c3ccc(C(=O)NS(=O)(=O)c4cc5c(c([N+](=O)[O-])c4)N[C@H](CO)CS5)c(Oc4cnc5[nH]ccc5c4)c3)CC2)=C(c2ccc(Cl)cc2)C1 [Example 3-5, (R)-2-((1H-pyrrolo[2,3-b]pyridin-5-yl)oxy)-4-(4-((4′-chloro-5,5-dimethyl-3,4,5,6-tetra-hydro-[1,1′-biphenyl]-2-yl)methyl)piperazin-1-yl)-N-((3-(hydroxymethyl)-5-nitro-3,4-dihydro-2H-benzo[b][1,4]thiazin-7-yl)sulfonyl) benzamide]	8	12
COC[C@@H]1CSc2cc(S(=O)(=O)NC(=O)c3ccc(N4CCN(CC5=C(c6ccc(Cl)cc6)CC(C)(C)CC5)CC4)cc3Oc3cnc4[nH]ccc4c3)cc([N+](=O)[O-])c2N1 [Example 3-6, (R)-2-((1H-pyrrolo[2,3-b]pyridin-5-yl)oxy)-4-(4-((4′-chloro-5,5-dimethyl-3,4,5,6-tetra-hydro-[1,1′-biphenyl]-2-yl)methyl)piperazin-1-yl)-N-((3-(methoxymethyl)-5-nitro-3,4-dihydro-2H-benzo[b][1,4]thiazin-7-yl)sulfonyl)benzamide]	8	14
CC1(C)CCC(CN2CCN(c3ccc(C(=O)NS(=O)(=O)c4cc5c(c([N+](=O)[O-])c4)N[C@@H](CO)CS5)c(Oc4cnc5[nH]ccc5c4)c3)CC2)=C(c2ccc(Cl)cc2)C1 [Example 3-7, (S)-2-((1H-pyrrolo[2,3-b]pyridin-5-yl)oxy)-4-(4-((4′-chloro-5,5-dimethyl-3,4,5,6-tetra-hydro-[1,1′-biphenyl]-2-yl)methyl)piperazin-1-yl)-N-((3-(hydroxymethyl)-5-nitro-3,4-dihydro-2H-benzo[b][1,4]thiazin-7-yl)sulfonyl) benzamide]	10	31
CN(C)C[C@H]1CSc2cc(S(=O)(=O)NC(=O)c3ccc(N4CCN(CC5=C(c6ccc(Cl)cc6)CC(C)(C)CC5)CC4)cc3Oc3cnc4[nH]ccc4c3)cc([N+](=O)[O-])c2N1 [Example 3-8, (S)-2-((1H-pyrrolo[2,3-b]pyridin-5-yl)oxy)-4-(4-((4′-chloro-5,5-dimethyl-3,4,5,6-tetra-hydro-[1,1′-biphenyl]-2-yl)methyl)piperazin-1-yl)-N-((3-((dimethylamino)methyl)-5-nitro-3,4-dihydro-2H-benzo[b][1,4]thiazin-7-yl)sulfonyl)benzamide]	17	67
CN1CCN(C[C@H]2CSc3cc(S(=O)(=O)NC(=O)c4ccc(N5CCN(CC6=C(c7ccc(Cl)cc7)CC(C)(C)CC6)CC5)cc4Oc4cnc5[nH]ccc5c4)cc([N+](=O)[O-])c3N2)CC1 [Example 3-9, (S)-2-((1H-pyrrolo[2,3-b]pyridin-5-yl)oxy)-4-(4-((4′-chloro-5,5-dimethyl-3,4,5,6-tetra-hydro-[1,1′-biphenyl]-2-yl)methyl)piperazin-1-yl)-N-((3-((4-methylpiperazin-1-yl)methyl)-5-nitro-3,4-dihydro-2H-benzo[b][1,4]thiazin-7-yl)sulfonyl)benzamide]	13	24
CC1(C)CCC(CN2CCN(c3ccc(C(=O)NS(=O)(=O)c4cc5c(c([N+](=O)[O-])c4)N[C@@H](CN4CCOCC4)CS5)c(Oc4cnc5[nH]ccc5c4)c3)CC2)=C(c2ccc(Cl)cc2)C1 [Example 3-10, (S)-2-((1H-pyrrolo[2,3-b]pyridin-5-yl)oxy)-4-(4-((4′-chloro-5,5-dimethyl-3,4,5,6-tetra-hydro-[1,1′-biphenyl]-2-yl)methyl)piperazin-1-yl)-N-((3-(morpholinomethyl)-5-nitro-3,4-dihydro-2H-benzo[b][1,4]thiazin-7-yl)sulfonyl)benzamide]	11	32
CC1(C)CCC(CN2CCN(c3ccc(C(=O)NS(=O)(=O)c4cc5c(c([N+](=O)[O-])c4)N[C@H](CCO)CS5)c(Oc4cnc5[nH]ccc5c4)c3)CC2)=C(c2ccc(Cl)cc2)C1 [Example 3-11, (R)-2-((1H-pyrrolo[2,3-b]pyridin-5-yl)oxy)-4-(4-((4′-chloro-5,5-dimethyl-3,4,5,6-tetra-hydro-[1,1′-biphenyl]-2-yl)methyl)piperazin-1-yl)-N-((3-(2-hydroxyethyl)-5-nitro-3,4-dihydro-2H-benzo[b][1,4]thiazin-7-yl)sulfonyl) benzamide]	11	16
COCC[C@@H]1CSc2cc(S(=O)(=O)NC(=O)c3ccc(N4CCN(CC5=C(c6ccc(Cl)cc6)CC(C)(C)CC5)CC4)cc3Oc3cnc4[nH]ccc4c3)cc([N+](=O)[O-])c2N1 [Example 3-12, (R)-2-((1H-pyrrolo[2,3-b]pyridin-5-yl)oxy)-4-(4-((4′-chloro-5,5-dimethyl-3,4,5,6-tetra-hydro-[1,1′-biphenyl]-2-yl)methyl)piperazin-1-yl)-N-((3-(2-methoxyethyl)-5-nitro-3,4-dihydro-2H-benzo[b][1,4]thiazin-7-yl)sulfonyl)benzamide]	84	120
CN(C)CC[C@@H]1CSc2cc(S(=O)(=O)NC(=O)c3ccc(N4CCN(CC5=C(c6ccc(Cl)cc6)CC(C)(C)CC5)CC4)cc3Oc3cnc4[nH]ccc4c3)cc([N+](=O)[O-])c2N1 [Example 3-13, (R)-2-((1H-pyrrolo[2,3-b]pyridin-5-yl)oxy)-4-(4-((4′-chloro-5,5-dimethyl-3,4,5,6-tetra-hydro-[1,1′-biphenyl]-2-yl)methyl)piperazin-1-yl)-N-((3-(2-(dimethylamino)ethyl)-5-nitro-3,4-dihydro-2H-benzo[b][1,4]thiazin-7-yl)sulfonyl)benzamide]	2	2
CN1CCN(CC[C@@H]2CSc3cc(S(=O)(=O)NC(=O)c4ccc(N5CCN(CC6=C(c7ccc(Cl)cc7)CC(C)(C)CC6)CC5)cc4Oc4cnc5[nH]ccc5c4)cc([N+](=O)[O-])c3N2)CC1 [Example 3-14, (R)-2-((1H-pyrrolo[2,3-b]pyridin-5-yl)oxy)-4-(4-((4′-chloro-5,5-dimethyl-3,4,5,6-tetra-hydro-[1,1′-biphenyl]-2-yl)methyl)piperazin-1-yl)-N-((3-(2-(4-methylpiperazin-1-yl)ethyl)-5-nitro-3,4-dihydro-2H-benzo[b][1,4]thiazin-7-yl)sulfonyl)benzamide]	4	9
